{"source": "patent US20180318263A1", "about": "(The Regents of the University of Colorado, a body corporate, priority 2016, published 2018)", "key": {"LNCaP CPT1A-KD clones": {"system": "LNCaP CPT1A-KD clones", "assay": "growth of LNCaP CPT1A-KD clones with enzalutamide", "assay_type": "cell-based, human", "settings": "enzalutamide (MDV3100) versus control clone", "protocol": "(C) Relative growth of LNCaP-KD clones compared to control (NTshRNA) with Enza treatment. *p<0.001, compared to control treatment. ap<0.01 compared to control clone. (NTshRNA—left; CPT1Ash1—center; and CPT1 Ash2 at each timepoint for FIGS. 6A and 6B.)\nData is normalized to the vehicle (0 μM, no drug) treatment. Data represents mean±SD.\nEtomoxir targets CPT1. […] It is possible that the decrease in AR observed with etomoxir is due to off-targets effects of the drug (besides CPT1), and/or the cells may need to be studied at earlier time points when apoptotic and ER stress mechanisms have not been set in motion."}, "LNCaP-Enza-Res cells": {"system": "LNCaP-Enza-Res cells", "assay": "growth of enzalutamide-resistant LNCaP cells (MTS)", "assay_type": "cell-based, human", "settings": "for growth of enzalutamide-resistant LNCaP cells versus parental: single fat oxidation inhibitor, 48 hours", "source_text": "FIG. 16 is a set of four graphs split over two pages. […] Data is normalized to the vehicle treatment (no drugs). […] Data is normalized to the vehicle treatment (no drugs). […] Data is normalized to the vehicle treatment (no drugs). […] Data is normalized to the vehicle treatment (no drugs).\nFIG. 17 is a pair of graphs showing the effects of treatment on the indicated cells. […] Data is normalized to the vehicle treatment (no drugs). […] Both concentrations are in microMolar (μM).\n(§1) Parental LNCaP and VCaP cells treated with vehicle were used as their corresponding controls."}, "TRAMPC1 cells": {"system": "TRAMPC1 cells", "assay": "mouse TRAMPC1 cell growth / clonogenic assay", "assay_type": "cell-based", "settings": "for sensitivity to each drug treatment alone: TRAMPC1, enzalutamide (5 μM); for sensitivity of mouse prostate cancer cells: FIG. 12", "source_text": "FIG. 10 is an image and a graph showing mouse TRAMPC1 cell growth assay. […] Representative crystal violet stains are shown above graph.\nThese cells are important model because they can be placed in syngeneic C57B1 mice with a complete immune system.\nThis cell line from mouse PCa allows the evaluation of treatments in vivo, using immune-competent […] mice, which are syngenic with the TRAMPC1 cells."}, "[1]": {"system": "enzalutamide-resistant PCa cells", "assay": "colony formation of enzalutamide-resistant versus parental PCa cells", "assay_type": "cell-based", "source_text": "Colony formation was examined after 2 weeks by crystal violet stain and analyzed with image J."}, "PCa cells": {"system": "PCa cells", "assay": "14C-lipid oxidation in PCa cells", "assay_type": "cell-based"}, "PCa cell lines": {"system": "PCa cell lines", "assay": "growth/viability of PCa cell lines with etomoxir", "assay_type": "cell-based, human", "settings": "etomoxir (75 μM in FIG. 2D), p<0.01", "source_text": "(§2) (E) Stain of xenografts slices with phospho-4EBP1 antibody. (F) Western blot of LNCaP cells treated with vehicle (“V”) or etomoxir (“E”), C-Casp3=cleaved-caspase 3. (G) Putative diagram of mTOR signaling pathway."}, "BPH-1 and WPMY-1 cells": {"system": "BPH-1 and WPMY-1 cells", "assay": "viability of benign prostate cells with etomoxir", "assay_type": "cell-based", "settings": "etomoxir 75 μM", "source_text": "as §2"}, "VCaP tumor": {"system": "VCaP tumor", "assay": "VCaP xenograft tumor growth in mice treated with etomoxir", "assay_type": "in vivo", "settings": "VCaP xenografts, etomoxir 40 mg/kg/day for 21 days, p<0.05", "source_text": "as §2"}, "mTOR": {"system": "mTOR", "assay": "ceramides and mTOR signaling after etomoxir", "assay_type": "cell-based", "source_text": "as §2"}, "primary PCa cells": {"system": "primary PCa cells", "assay": "primary PCa cells derived from prostatectomies treated with etomoxir", "assay_type": "cell-based, human", "settings": "data not shown", "source_text": "The effects of etomoxir in primary PCa cells derived from prostatectomies carried out at University of Colorado hospital were examined."}, "LNCaP cells": {"system": "LNCaP cells", "assay": "ER stress markers in etomoxir-treated LNCaP cells", "assay_type": "cell-based, human", "source_text": "(C) Phosphorylation of the α-subunit of the translation initiation factor eIF2 (p-eIF2a) and expression of LC3 cleavage marker of autophagy. (D) Agarose gel showing the spliced (activated, 447 bp) XBP1 factor that regulates the response to ER stress."}, "androgen receptor (AR)": {"system": "androgen receptor (AR)", "assay": "AR gene expression and Western blot in LNCaP cells", "assay_type": "cell-based, human", "settings": "etomoxir 48 hours, p<0.05", "protocol": "(A) Relative AR gene expression after vehicle (“V”) or etomoxir (“E”) treatment in LNCaP cells. ARfl=full length AR; ARv7=AR variant 7; AR total=all AR isoforms; PSA=prostate specific antigen; NKX3.1=Homeodomain-containing transcription factor regulated by androgens. […] (B) Western blot of full length AR and ARV7 variant in LNCaP cells treated with etomoxir for 48 hours."}, "VCaP-Enza-Res cells": {"system": "VCaP-Enza-Res cells", "assay": "growth of enzalutamide-resistant VCaP cells", "assay_type": "cell-based, human", "settings": "single fat oxidation inhibitor, 48 hours", "source_text": "as §1"}, "[2]": {"system": "tumors of human cells resistant to enzalutamide", "assay": "enzalutamide-resistant human tumors in nude mice treated with ranolazine", "assay_type": "in vivo", "settings": "injections started on day 5"}}, "note": "“Also recorded” adds a separate entry of the source."}
{"compound": "CNC(=O)c1ccc(N2C(=S)N(c3ccc(C#N)c(C(F)(F)F)c3)C(=O)C2(C)C)cc1F", "note": "[enzalutamide]", "values": [{"measurement": "cell growth of CPT1A-deficient LNCaP clones", "setting": "LNCaP CPT1A-KD clones", "value": "more sensitive to enzalutamide treatment; also recorded: synergistic effect on cell growth"}, {"measurement": "growth in the presence of enzalutamide", "setting": "LNCaP-Enza-Res cells; LNCaP-enzalutamide resistant cells versus parental, p<0.001", "value": "can grow in the presence of enzalutamide"}, {"measurement": "sensitivity to each drug treatment alone", "setting": "TRAMPC1 cells", "value": "not very sensitive"}, {"measurement": "growth in the presence of enzalutamide compared to parental controls", "setting": "[1]", "value": "grow better in the presence of enzalutamide"}]}
{"compound": "CCOC(=O)[C@@]1(CCCCCCOc2ccc(Cl)cc2)CO1", "note": "[etomoxir]", "values": [{"measurement": "14C-lipid oxidation", "setting": "PCa cells", "value": "able to block 14C-lipid oxidation"}, {"measurement": "growth / viability of PCa cells", "setting": "PCa cell lines", "value": "decrease their growth and died"}, {"measurement": "growth / viability of PCa cells", "setting": "PCa cell lines; listed as Etomoxir", "value": "decreases the viability"}, {"measurement": "growth effect in benign cells", "setting": "BPH-1 and WPMY-1 cells", "value": "not seen"}, {"measurement": "tumor growth", "setting": "VCaP tumor", "value": "Decreased VCaP tumor growth; also recorded: also observed"}, {"measurement": "mTOR and downstream effectors S6K and 4EBP-1", "setting": "mTOR; etomoxir treatment", "value": "decreased mTOR and its downstream effectors S6K and 4EBP-1"}, {"measurement": "palmitate-containing ceramides", "setting": "mTOR; etomoxir treatment (not shown)", "value": "increased palmitate-containing ceramides"}, {"measurement": "glucose uptake", "setting": "primary PCa cells", "value": "momentary increase in glucose uptake"}, {"measurement": "viability compared to matched non-cancerous cells", "setting": "primary PCa cells", "value": "concomitant decrease in viability"}, {"measurement": "autophagy markers (LC3)", "setting": "LNCaP cells", "value": "increase in autophagy markers (LC3)"}, {"measurement": "markers of ER stress", "setting": "LNCaP cells; ATF4, GADD34, GRP78, CHOP, p<0.001", "value": "increase in markers of ER stress"}, {"measurement": "expression of androgen receptor (AR) and its variant forms", "setting": "androgen receptor (AR)", "value": "significant decrease"}, {"measurement": "sensitivity of mouse prostate cancer cells", "setting": "TRAMPC1 cells", "value": "sensitive"}]}
{"compound": "C1CCC(C(CC2CCCCN2)C2CCCCC2)CC1", "note": "(stereo not shown) [perhexiline]", "values": [{"measurement": "sensitivity of mouse prostate cancer cells", "setting": "TRAMPC1 cells", "value": "sensitive"}]}
{"compound": "COc1ccccc1OCC(O)CN1CCN(CC(=O)Nc2c(C)cccc2C)CC1", "note": "(stereo not shown) [ranolazine]", "values": [{"measurement": "growth of enzalutamide-resistant LNCaP cells versus parental", "setting": "LNCaP-Enza-Res cells", "value": "more sensitive to ranolazine than their corresponding parental controls"}, {"measurement": "growth of enzalutamide-resistant LNCaP cells versus parental", "setting": "LNCaP-Enza-Res cells; listed as Ranolazine", "value": "inhibits growth"}, {"measurement": "growth of enzalutamide-resistant VCaP cells versus parental", "setting": "VCaP-Enza-Res cells", "value": "more sensitive to ranolazine than their corresponding parental controls"}, {"measurement": "growth of enzalutamide-resistant VCaP cells versus parental", "setting": "VCaP-Enza-Res cells; listed as Ranolazine", "value": "inhibits growth"}, {"measurement": "sensitivity of mouse prostate cancer cells", "setting": "TRAMPC1 cells", "value": "sensitive"}, {"measurement": "sensitivity to each drug treatment alone", "setting": "TRAMPC1 cells", "value": "not very sensitive"}, {"measurement": "sensitivity of enzalutamide-resistant tumors", "setting": "[2]", "value": "show signs of sensitivity"}]}
